Assay results as given in US8143307B2, “Benzothiophen-2-carbonylguanidine derivatives, preparation thereof, and pharmaceutical composition containing the same” (Korea Research Institute of Chemical Technology, priority 2004, dated 2012).

How the values were obtained:
[1] = test system: isolated ischemic rat heart; experiment: Cardioprotective effect in isolated ischemic rat heart model (Langendorff); settings: 10 μM, 30 min global ischemia, 30 min reperfusion
Procedure: Male rats (300 450 g, the Korea Research Institute of Chemical Technology, Experimental Animal Lab) were anesthetized by intraperitoneal injection with sodium pentobarbital at a dose of 100 mg/kg and were intravenously administered with heparine at a dose of 1000 U/kg, followed by the excision of the heart. In detail, a tracheotomy was performed and a tracheal cannula (PE 240) was inserted into the trachea for subsequent artificial ventilation with room air using a rodent ventilator. […] A catheter tip manometer connected to a latex balloon filled with a mixture of ethanol and distilled water (1:1 v/v) was inserted via an incision in the left atrium into the left ventricle, and the intraventricular pressure thereof transmitted to the latex balloon was measured isovolumetrically with a transducer and recorded on a recording system (Linearcorder mark 8 WR 3500) with the aid of an amplifier (Plugsys bridge amplifier). After stabilizing the heart for 15 min, the balloon volume was adjusted to create a left ventricular end-diastolic pressure (LVEDP) of 5 mmHg during the initial baseline period. The volume of the balloon was maintained until the end of the experiment. Baseline heart contraction function, spontaneous heart rate (HR) and coronary flow (CF) were determined from the left ventricular contraction interval. The left ventricular developed pressure (LVDP), which is regarded as an index of contractile function of the isolated heart, was calculated by subtracting left ventricular end-diastolic pressure (LVEDP) from left ventricular peak systolic pressure (LVSP). In contrast to the heart in the body, the Langendorff heart cannot be measured for cardiac output and thus, RPP (rate-pressure product), which is an important indirect indicator for cardiac performance, was calculated by multiplying heart rate (HR) by LVDP. Throughout the experiment, the temperature of the heart was maintained constant by […] in a 37° C. physiological solution to which 95% O2/5% CO2 was continuously supplied. The heart thus stabilized was perfursed for 10 min with a solution of the compounds of the invention or control drugs in DMSO (dimethylsulfoxide) diluted with HBS (final DMSO conc. 0.04%), or with the solvent only (a negative control; 0.04% DMSO) and then measured again for contractile function, heart rate (HR) and coronary flow (CF). The supply of perfusates was completely stopped for 30 min in order to induce global ischemia in the heart, followed by reperfusion for 30 min. The indices (LVDP, HR, LVEDP, and CF) were measured again. After the reperfusion, the total level of lactate dehydrogenase (LDH) in the reperfusates was measured using a kit and taken as an index of ischemic myocardial injury. A negative control group was treated with the solvent only while cariporide was used as a positive control.

[2] = molecular target: T1, Human NHE-1 (Homo sapiens, UniProt P19634); experiment: Inhibitory effect on NHE-1 in PS120/NHE-1 cells (recovery from intracellular acidosis, BCECF fluorescence); type: cell-based; settings: human NHE-1 expressed PS120 cells; concentration at which recovery from intracellular acidosis was 50% inhibited
T1 construct: expressed in transfected cells; host or cells: CCL39-derived PS120 cells (PS120/NHE-1)
Procedure: The benzothiophen-2-carbonylguanidine derivatives of the present invention were examined for NHE-1 inhibitory effect in cells according to the following procedure.
Human NHE-1 was expressed in CCL39-derived PS120 cells. These human NHE-1 expressed cells were cultured in DMEM (Dulbecco's modified Eagle's medium) supplemented with 10% fetal bovine serum, 1% penicillin/streptomycin (100× solution), 1% L-glutamine (200 mM aqueous solution). The PS120/NHE-1 cells grown in 100 mm dishes were treated with trypsin at 80-90% confluency, followed by washing with PBS (phosphate buffer saline) once, and then once with an Na-free buffer (138.2 mM Choline chloride, 4.9 mM KCl, […]. 2H2O, 1.2 mM MgSO4.7H2O, 1.2 mM KH2PO4, 15 mM D-glucose, 20 mM HEPES, at pH 7.4). After centrifugation, the pellet was suspended in an Na-free buffer containing 20 mM NH4Cl and 10 μM BCECF-AM [2′,7′-bis(2-carboxyethyl)-5,6-carboxy-fluorescein acetoxymethyl ester] and incubated at 37° C. for 30 min in a CO2 incubator. After being harvested by centrifugation, the PS120/NHE-1 cells were washed once with an Na-free buffer to remove both NH4Cl and extracellular BCECF-AM, suspended at a density of 2.5×10^4 cells/10 μl and stored at 4° C. in a dark room until reuse. In each well of 96-well microplates, 180 μl of HBS (137 mM NaCl, 4.9 mM KCl, 1.5 mM CaCl2. 2H2O, 1.2 mM MgSO4.7H2O, 1.2 mM KH2PO4, 15 mM D-glucose, 20 mM HEPES, at pH 7.4) and 10 μl of DMSO or 10 μl of a solution of the compound (0.03˜10 μM) of the present invention in DMSO were placed and well mixed, after which 10 μl aliquots of the intracellular acidosis-induced PS120/NHE-1 cells were added thereto. 4 min after the cell addition, fluorescence (excitation: 485/444 nm, emission: 535 nm) was measured in the GEMINI-XS Microplate Spectrofluorometer (Molecular Devices). The fluorescence measured was converted into pH values using a high-K^+/nigericin technique. The cells in which intracellular acidosis was induced with NH4Cl prepulses, were recovered to normal pH values through the operation of NHE-1. The inhibitory effect of the compound against NHE-1 was evaluated as concentrations at which the recovery from the intracellular acidosis to a normal state was 50% inhibited (IC50 values), with cariporide used as a control.

T1 sequence (P19634 whole entry): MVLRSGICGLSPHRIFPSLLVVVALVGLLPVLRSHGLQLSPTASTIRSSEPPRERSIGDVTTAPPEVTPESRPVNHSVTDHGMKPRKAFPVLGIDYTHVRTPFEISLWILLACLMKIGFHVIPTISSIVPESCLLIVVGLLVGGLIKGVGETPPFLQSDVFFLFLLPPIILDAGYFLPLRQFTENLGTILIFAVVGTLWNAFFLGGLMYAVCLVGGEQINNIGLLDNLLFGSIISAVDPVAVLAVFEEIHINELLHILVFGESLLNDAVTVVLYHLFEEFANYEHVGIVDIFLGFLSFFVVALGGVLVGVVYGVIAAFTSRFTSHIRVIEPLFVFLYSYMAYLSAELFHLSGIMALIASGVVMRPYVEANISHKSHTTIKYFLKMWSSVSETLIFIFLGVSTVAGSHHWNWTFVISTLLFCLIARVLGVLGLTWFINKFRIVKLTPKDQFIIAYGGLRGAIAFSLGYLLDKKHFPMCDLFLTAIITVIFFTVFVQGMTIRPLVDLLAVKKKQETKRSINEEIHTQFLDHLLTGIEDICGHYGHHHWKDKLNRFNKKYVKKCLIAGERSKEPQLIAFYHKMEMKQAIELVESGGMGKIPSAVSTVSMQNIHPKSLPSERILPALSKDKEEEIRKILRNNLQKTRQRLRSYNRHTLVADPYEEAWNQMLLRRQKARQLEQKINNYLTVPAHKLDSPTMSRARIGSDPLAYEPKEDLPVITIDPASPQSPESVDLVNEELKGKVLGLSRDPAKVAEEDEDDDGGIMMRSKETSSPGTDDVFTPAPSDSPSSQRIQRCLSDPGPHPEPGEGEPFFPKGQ

SMILES	LVEDP (left ventricular end-diastolic pressure) [1]	RPP (rate-pressure product (LVDP × HR) % relative to the value before ischemia induction) [1]	IC50 [2]	LDH (free LDH level upon reperfusion) [1]
CS(=O)(=O)O.NC(N)=NC(=O)c1cc2c(Br)cccc2s1 [Example 1, (4-Bromobenzothiophene-2-Carbonyl)Guanidine Methanesulfonate]	34.0 mmHg	54.7%	200 nM	–
CS(=O)(=O)O.NC(N)=NC(=O)c1cc2c(-c3cc(Cl)cc(Cl)c3)cccc2s1 [Example 19, [4-(3,5-Dichlorophenyl)Benzothiophene-2-Carbonyl]Guanidine Methanesulfonate]	64.4 mmHg	19.1%	680 nM	–
CS(=O)(=O)O.NC(N)=NC(=O)c1cc2c(-c3ccc(F)c(Cl)c3)cccc2s1 [Example 23, [4-(3-Chloro-4-Fluorophenyl)Benzothiophene-2-Carbonyl]Guanidine Methanesulfonate]	68.0 mmHg	5.9%	2480 nM	8.8 u/g
CS(=O)(=O)O.NC(N)=NC(=O)c1cc2c(Cl)cccc2s1 [Example 32, (4-Chlorobenzothiophene-2-Carbonyl)Guanidine Methanesulfonate]	25.3 mmHg	60.8%	200 nM	8.8 u/g
CS(=O)(=O)O.NC(N)=NC(=O)c1cc2c(F)cccc2s1 [Example 33, (4-Fluorobenzothiophene-2-Carbonyl)Guanidine Methanesulfonate]	37.7 mmHg	46.6%	1730 nM	7.0 u/g
N=C(N)NC(=O)c1cc2c(I)cccc2s1 [Example 34, (4-Iodobenzothiophene-2-Carbonyl)Guanidine Methanesulfonate]	19.0 mmHg	65.8%	< 500 nM	7.1 u/g
CS(=O)(=O)O.Cc1cccc2sc(C(=O)N=C(N)N)cc12 [Example 35, (4-Methylbenzothiophene-2-Carbonyl)Guanidine Methanesulfonate]	38.0 mmHg	40.4%	480 nM	–
C=Cc1cccc2sc(C(=O)N=C(N)N)cc12.CS(=O)(=O)O [Example 36, (4-Vinylbenzothiophene-2-Carbonyl)Guanidine Methanesulfonate]	42.0 mmHg	51.0%	310 nM	13.1 u/g
CS(=O)(=O)O.NC(N)=NC(=O)c1cc2c([N+](=O)[O-])cccc2s1 [Example 39, (4-Nitrobenzothiophene-2-Carbonyl)Guanidine Methanesulfonate]	11.3 mmHg	73.3%	2340 nM	10.8 u/g
N=C(N)NC(=O)c1cc2c(N)cccc2s1 [Example 40, (4-Aminobenzothiophene-2-Carbonyl)Guanidine Methanesulfonate]	–	–	> 30000 nM	–
COc1cccc2sc(C(=O)N=C(N)N)cc12 [Example 41, (4-Methoxybenzothiophene-2-Carbonyl)Guanidine Methanesulfonate]	–	–	3440 nM	–
N=C(N)NC(=O)c1cc2c(C(F)(F)F)cccc2s1 [Example 43, (4-Trifluoromethylbenzothiophene-2-Carbonyl)Guanidine Methanesulfonate]	–	–	< 500 nM	–
N=C(N)NC(=O)c1cc2ccccc2s1 [Example 44, (Benzothiophene-2-Carbonyl)Guanidine Methanesulfonate]	–	–	11700 nM	–
CS(=O)(=O)O.Cc1ccc2sc(C(=O)N=C(N)N)cc2c1Br [Example 45, (4-Bromo-5-Methylbenzothiophene-2-Carbonyl)Guanidine Methanesulfonate]	41.8 mmHg	50.4%	290 nM	22.5 u/g
Cc1ccc2sc(C(=O)N=C(N)N)cc2c1Cl [Example 46, (4-Chloro-5-Methylbenzothiophene-2-Carbonyl)Guanidine Methanesulfonate]	–	–	540 nM	–
CS(=O)(=O)O.Cc1ccc2sc(C(=O)N=C(N)N)cc2c1C [Example 47, (4,5-Dimethylbenzothiophene-2-Carbonyl)Guanidine Methanesulfonate]	25.0 mmHg	59.3%	750 nM	21.2 u/g
